Values of other authors as cited in patent publication US20150191797A1, “SYSTEMS AND METHODS FOR DIAGNOSING A PREDISPOSITION TO COLON CANCER” (Institute for Cancer Research d/b/a The Research Institute …, priority 2012, published 2015).

System: Werner cells
Settings: camptothecin doses of 20-50 nM

Question: With `CC[C@@]1(O)C(=O)OCc2c1cc1n(c2=O)Cc2cc3ccccc3nc2-1` [Camptothecin, camptothecin] as the molecule, how does the “effect on cell cycle” value read?
Answer: S phase delay

Question: And the increase in apoptosis?
Answer: 5-6 fold
